± gives the expanded uncertainty stated by the source.
Legend:
[1] = Liquid; for mass density: 298.15 K, 101.33 kPa; for Normal boiling temperature: Ebulliometric method (Recirculating still)
[2] = refractive index (Na D-line) (dimensionless); details: 298.15 K; 101.33 kPa; Liquid; Standard Abbe refractometry

Row | SMILES | mass density [1] [kg/m3] | Normal boiling temperature [1] [°C] | refractive index [2]
1 | CCC(C)=O [butanone] | 799.62 ± 0.46 | 79.53 ± 0.3 | 1.3761 ± 0.0005
2 | CCC(C)O (stereo unspecified) [butan-2-ol] | 802.35 ± 0.79 | 99.41 ± 0.3 | 1.3951 ± 0.0005
